Key:
[1] = tested on: LNCaP cells; assay: LNCaP cell viability assay (CellTiter-Glo); assay type: cell-based; conditions: Homo sapiens, 72 h; LNCaP prostate cancer cell viability inhibition, 3 days, CellTiter-Glo (Table 2)
Procedure, shortened: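 LNCaP cells, 5000/well, exposed to compounds in 12-point 3-fold serial dilution (top 10 μM) for 3 days. Viability by CellTiter-Glo luminescence, normalized to untreated cells; IC50 by least-squares nonlinear regression.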

[2] = target: P300 (Homo sapiens, UniProt Q09472); assay: Immunoblotting of P300 protein levels in LNCaP or 22RV1 cells; assay type: cell-based; design: LNCaP or 22RV1 cells that express CBP/P300 proteins were treated with GNE-781 or the bivalent compounds; endogenous in cells; host or cells: LNCaP (clone FGC) or 22RV1 cells; conditions: percentage of inhibition of p300 at 10 nM (Table 2); read-out: Degradation (10 nM)
Sequence of P300 (Q09472 whole entry): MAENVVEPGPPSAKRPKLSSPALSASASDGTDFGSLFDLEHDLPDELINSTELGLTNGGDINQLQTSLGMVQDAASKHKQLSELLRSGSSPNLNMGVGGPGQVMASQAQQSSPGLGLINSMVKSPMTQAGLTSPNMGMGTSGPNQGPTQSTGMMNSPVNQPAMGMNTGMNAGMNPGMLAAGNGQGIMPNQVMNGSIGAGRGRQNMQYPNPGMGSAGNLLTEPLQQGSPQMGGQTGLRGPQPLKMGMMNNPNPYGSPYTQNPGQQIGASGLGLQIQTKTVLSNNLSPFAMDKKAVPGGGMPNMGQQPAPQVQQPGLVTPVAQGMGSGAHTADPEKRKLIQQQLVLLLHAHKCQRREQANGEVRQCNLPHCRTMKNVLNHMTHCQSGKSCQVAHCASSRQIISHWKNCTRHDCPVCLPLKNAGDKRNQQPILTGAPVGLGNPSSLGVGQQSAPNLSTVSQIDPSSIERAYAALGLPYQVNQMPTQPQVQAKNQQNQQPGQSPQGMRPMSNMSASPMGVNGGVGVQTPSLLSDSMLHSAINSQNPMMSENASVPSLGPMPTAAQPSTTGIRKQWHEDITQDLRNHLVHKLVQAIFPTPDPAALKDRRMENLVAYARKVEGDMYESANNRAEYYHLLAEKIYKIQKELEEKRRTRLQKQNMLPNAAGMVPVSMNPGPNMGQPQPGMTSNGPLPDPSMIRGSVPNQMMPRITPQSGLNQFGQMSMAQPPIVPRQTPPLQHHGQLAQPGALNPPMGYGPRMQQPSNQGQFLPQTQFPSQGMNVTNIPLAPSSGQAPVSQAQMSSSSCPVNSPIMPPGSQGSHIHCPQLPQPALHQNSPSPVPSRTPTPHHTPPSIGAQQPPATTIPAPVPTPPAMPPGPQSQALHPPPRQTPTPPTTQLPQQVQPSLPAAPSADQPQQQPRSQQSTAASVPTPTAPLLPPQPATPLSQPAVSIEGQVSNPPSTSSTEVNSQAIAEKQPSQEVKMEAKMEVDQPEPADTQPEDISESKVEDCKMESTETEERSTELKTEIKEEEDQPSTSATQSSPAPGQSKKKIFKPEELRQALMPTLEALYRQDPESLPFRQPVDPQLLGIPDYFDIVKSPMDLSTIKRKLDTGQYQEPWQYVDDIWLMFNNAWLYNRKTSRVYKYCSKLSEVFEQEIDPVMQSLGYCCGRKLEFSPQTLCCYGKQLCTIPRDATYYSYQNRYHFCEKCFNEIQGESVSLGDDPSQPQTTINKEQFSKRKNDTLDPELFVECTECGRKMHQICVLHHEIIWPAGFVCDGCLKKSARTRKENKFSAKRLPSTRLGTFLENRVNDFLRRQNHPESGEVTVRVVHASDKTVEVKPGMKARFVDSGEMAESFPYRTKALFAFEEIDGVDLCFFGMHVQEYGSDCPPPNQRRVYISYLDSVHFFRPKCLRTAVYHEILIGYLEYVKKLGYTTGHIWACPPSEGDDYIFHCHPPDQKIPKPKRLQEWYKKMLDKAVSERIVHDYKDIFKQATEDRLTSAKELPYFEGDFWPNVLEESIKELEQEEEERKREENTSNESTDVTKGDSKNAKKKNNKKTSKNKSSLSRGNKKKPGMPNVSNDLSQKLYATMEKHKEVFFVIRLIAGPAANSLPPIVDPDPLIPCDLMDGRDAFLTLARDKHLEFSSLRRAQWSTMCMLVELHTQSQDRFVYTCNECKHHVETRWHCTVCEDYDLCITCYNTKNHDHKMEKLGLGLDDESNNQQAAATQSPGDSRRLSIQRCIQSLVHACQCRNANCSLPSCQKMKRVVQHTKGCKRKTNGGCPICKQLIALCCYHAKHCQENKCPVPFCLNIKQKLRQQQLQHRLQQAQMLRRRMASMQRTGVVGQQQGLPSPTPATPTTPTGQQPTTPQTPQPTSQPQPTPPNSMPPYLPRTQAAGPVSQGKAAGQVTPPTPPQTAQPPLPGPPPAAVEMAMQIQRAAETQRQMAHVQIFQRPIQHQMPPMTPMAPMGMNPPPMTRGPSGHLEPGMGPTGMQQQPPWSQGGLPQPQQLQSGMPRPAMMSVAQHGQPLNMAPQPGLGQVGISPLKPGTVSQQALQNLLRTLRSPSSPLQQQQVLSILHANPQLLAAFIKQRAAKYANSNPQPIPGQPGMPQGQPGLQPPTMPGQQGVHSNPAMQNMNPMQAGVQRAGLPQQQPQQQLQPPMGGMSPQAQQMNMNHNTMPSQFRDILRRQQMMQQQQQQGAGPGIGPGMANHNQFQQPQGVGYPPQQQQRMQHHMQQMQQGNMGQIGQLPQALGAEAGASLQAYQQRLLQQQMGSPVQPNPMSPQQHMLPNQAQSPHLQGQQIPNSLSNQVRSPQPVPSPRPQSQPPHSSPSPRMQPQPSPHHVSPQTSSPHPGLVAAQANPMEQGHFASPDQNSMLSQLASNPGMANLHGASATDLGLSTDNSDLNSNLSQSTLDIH
Method: Specific exemplary bivalent compounds were characterized in LNCaP or 22RV1 cells. LNCaP or 22RV1 cells that express CBP/P300 proteins were treated with GNE-781 or the bivalent compounds disclosed herein (P-001 to P-174) for indicated hours. Cells were collected, lysed and subject to immunoblotting using an antibody specific to P300 or CBP proteins. Tubulin or vinculin was included as the loading control. DMSO was used as the negative control.
Cultured cells or tissue chunks were washed with cold PBS once and lysed in cold RIPA buffer supplemented with protease inhibitors and phosphatase inhibitors (Beyotime Biotechnology). The solutions were then incubated at 4° C. for 30 minutes with gentle agitation to fully lyse cells. Cell lysates were centrifuged at 13,000 rpm for 10 minutes at 4° C. and pellets were discarded. Total protein concentrations in the lysates were determined by BCA assays (Beyotime Biotechnology). Cell lysates were mixed with Laemmli loading buffer to 1× and heated at 99° C. for 5 min. Proteins were resolved on SDS-PAGE and visualized by chemiluminescence. Images were taken by a ChemiDoc MP Imaging system (Bio-Rad). Protein bands were quantitated using the accompanied software provided by Bio-Rad.

IC50 [1]	inhibition at 0.01 µM [2]	Compound
3.2 nM	> 80%	CNC(=O)N1CCc2c(c(N3CCCc4cc(-c5cnn(CC(=O)NCCCCCCCNc6ccc7c(c6)C(=O)N(C6CCC(=O)NC6=O)C7=O)c5)c(C(F)F)cc43)nn2C2CCOCC2)C1 (stereo not shown) [P-026, 3-(7-(difluoromethyl)-6-(1-(2-((7-((2-(2,6-dioxopiperidin-3-yl)-1,3-dioxoisoindolin-5-yl)amino)heptyl)amino)-2-oxoethyl)-1H-pyrazol-4-yl)-3,4-dihydroquinolin-1(2H)-yl)-N-methyl-1-(tetrahydro-2H-pyran-4-yl)-1,4,6,7-tetrahydro-5H-pyrazolo[4,3-c]pyridine-5-carboxamide]
2.5 nM	> 80%	CNC(=O)N1CCc2c(c(N3CCCc4cc(-c5cnn(CC(=O)NCCCCCCCCNc6ccc7c(c6)C(=O)N(C6CCC(=O)NC6=O)C7=O)c5)c(C(F)F)cc43)nn2C2CCOCC2)C1 (stereo not shown) [P-027, 3-(7-(difluoromethyl)-6-(1-(2-((8-((2-(2,6-dioxopiperidin-3-yl)-1,3-dioxoisoindolin-5-yl)amino)octyl)amino)-2-oxoethyl)-1H-pyrazol-4-yl)-3,4-dihydroquinolin-1(2H)-yl)-N-methyl-1-(tetrahydro-2H-pyran-4-yl)-1,4,6,7-tetrahydro-5H-pyrazolo[4,3-c]pyridine-5-carboxamide]
1040 nM	< 20%	CNC(=O)N1CCc2c(c(N3CCCc4cc(-c5cnn(CC(=O)NCCOCCNc6ccc7c(c6)C(=O)N(C6CCC(=O)NC6=O)C7=O)c5)c(C(F)F)cc43)nn2C2CCOCC2)C1 (stereo not shown) [P-028, 3-(7-(Difluoromethyl)-6-(1-(2-((2-(2-((2-(2,6-dioxopiperidin-3-yl)-1,3-dioxoisoindolin-5-yl)amino)ethoxy)ethyl)amino)-2-oxoethyl)-1H-pyrazol-4-yl)-3,4-dihydroquinolin-1(2H)-yl)-N-methyl-1-(tetrahydro-2H-pyran-4-yl)-1,4,6,7-tetrahydro-5H-pyrazolo[4,3-c]pyridine-5-carboxamide]
578 nM	< 20%	CNC(=O)N1CCc2c(c(N3CCCc4cc(-c5cnn(CC(=O)NCCOCCOCCNc6ccc7c(c6)C(=O)N(C6CCC(=O)NC6=O)C7=O)c5)c(C(F)F)cc43)nn2C2CCOCC2)C1 (stereo not shown) [P-029]
669 nM	< 20%	CNC(=O)N1CCc2c(c(N3CCCc4cc(-c5cnn(CC(=O)NCCOCCOCCOCCNc6ccc7c(c6)C(=O)N(C6CCC(=O)NC6=O)C7=O)c5)c(C(F)F)cc43)nn2C2CCOCC2)C1 (stereo not shown) [P-030, 3-(7-(Difluoromethyl)-6-(1-(14-((2-(2,6-dioxopiperidin-3-yl)-1,3-dioxoisoindolin-5-yl)amino)-2-oxo-6,9,12-trioxa-3-azatetradecyl)-1H-pyrazol-4-yl)-3,4-dihydroquinolin-1(2H)-yl)-N-methyl-1-(tetrahydro-2H-pyran-4-yl)-1,4,6,7-tetrahydro-5H-pyrazolo[4,3-c]pyridine-5-carboxamide]
566 nM	< 20%	CNC(=O)N1CCc2c(c(N3CCCc4cc(-c5cnn(CC(=O)NCCOCCOCCOCCOCCNc6ccc7c(c6)C(=O)N(C6CCC(=O)NC6=O)C7=O)c5)c(C(F)F)cc43)nn2C2CCOCC2)C1 (stereo not shown) [P-031, 3-(7-(Difluoromethyl)-6-(1-(17-((2-(2,6-dioxopiperidin-3-yl)-1,3-dioxoisoindolin-5-yl)amino)-2-oxo-6,9,12,15-tetraoxa-3-azaheptadecyl)-1H-pyrazol-4-yl)-3,4-dihydroquinolin-1(2H)-yl)-N-methyl-1-(tetrahydro-2H-pyran-4-yl)-1,4,6,7-tetrahydro-5H-pyrazolo[4,3-c]pyridine-5-carboxamide]
601 nM	< 20%	CNC(=O)N1CCc2c(c(N3CCCc4cc(-c5cnn(CC(=O)NCCOCCOCCOCCOCCOCCNc6ccc7c(c6)C(=O)N(C6CCC(=O)NC6=O)C7=O)c5)c(C(F)F)cc43)nn2C2CCOCC2)C1 (stereo not shown) [P-032, 3-(7-(Difluoromethyl)-6-(1-(20-((2-(2,6-dioxopiperidin-3-yl)-1,3-dioxoisoindolin-5-yl)amino)-2-oxo-6,9,12,15,18-pentaoxa-3-azaicosyl)-1H-pyrazol-4-yl)-3,4-dihydroquinolin-1(2H)-yl)-N-methyl-1-(tetrahydro-2H-pyran-4-yl)-1,4,6,7-tetrahydro-5H-pyrazolo[4,3-c]pyridine-5-carboxamide]
4.8 nM	> 80%	CNC(=O)N1CCc2c(c(N3CCCc4cc(-c5cnn(C)c5)c(C(F)F)cc43)nn2C2CCN(C(=O)CCCCNc3cccc4c3C(=O)N(C3CCC(=O)NC3=O)C4=O)CC2)C1 (stereo not shown) [P-033, 3-(7-(difluoromethyl)-6-(1-methyl-1H-pyrazol-4-yl)-3,4-dihydroquinolin-1(2H)-yl)-1-(1-(5-((2-(2,6-dioxopiperidin-3-yl)-1,3-dioxoisoindolin-4-yl)amino)pentanoyl)piperidin-4-yl)-N-methyl-1,4,6,7-tetrahydro-5H-pyrazolo[4,3-c]pyridine-5-carboxamide]
0.7 nM	> 80%	CNC(=O)N1CCc2c(c(N3CCCc4cc(-c5cnn(C)c5)c(C(F)F)cc43)nn2C2CCN(C(=O)CCCCCCNc3cccc4c3C(=O)N(C3CCC(=O)NC3=O)C4=O)CC2)C1 (stereo not shown) [P-035, 3-(7-(difluoromethyl)-6-(1-methyl-1H-pyrazol-4-yl)-3,4-dihydroquinolin-1(2H)-yl)-1-(1-(7-((2-(2,6-dioxopiperidin-3-yl)-1,3-dioxoisoindolin-4-yl)amino)heptanoyl)piperidin-4-yl)-N-methyl-1,4,6,7-tetrahydro-5H-pyrazolo[4,3-c]pyridine-5-carboxamide]
0.8 nM	> 80%	CNC(=O)N1CCc2c(c(N3CCCc4cc(-c5cnn(C)c5)c(C(F)F)cc43)nn2C2CCN(C(=O)CCCCCCCNc3cccc4c3C(=O)N(C3CCC(=O)NC3=O)C4=O)CC2)C1 (stereo not shown) [P-036, 3-(7-(difluoromethyl)-6-(1-methyl-1H-pyrazol-4-yl)-3,4-dihydroquinolin-1(2H)-yl)-1-(1-(8-((2-(2,6-dioxopiperidin-3-yl)-1,3-dioxoisoindolin-4-yl)amino)octanoyl)piperidin-4-yl)-N-methyl-1,4,6,7-tetrahydro-5H-pyrazolo[4,3-c]pyridine-5-carboxamide]
> 10000 nM	< 20%	CNC(=O)N1CCc2c(c(N3CCCc4cc(-c5cnn(CC(=O)NCCNc6cccc7c6C(=O)N(C6CCC(=O)NC6=O)C7=O)c5)c(C(F)F)cc43)nn2C2CCOCC2)C1 (stereo not shown) [P-037, 3-(7-(Difluoromethyl)-6-(1-(2-((2-((2-(2,6-dioxopiperidin-3-yl)-1,3-dioxoisoindolin-4-yl)amino)ethyl)amino)-2-oxoethyl)-1H-pyrazol-4-yl)-3,4-dihydroquinolin-1(2H)-yl)-N-methyl-1-(tetrahydro-2H-pyran-4-yl)-1,4,6,7-tetrahydro-5H-pyrazolo[4,3-c]pyridine-5-carboxamide]
385 nM	< 20%	CNC(=O)N1CCc2c(c(N3CCCc4cc(-c5cnn(CC(=O)NCCCNc6cccc7c6C(=O)N(C6CCC(=O)NC6=O)C7=O)c5)c(C(F)F)cc43)nn2C2CCOCC2)C1 (stereo not shown) [P-038, 3-(7-(Difluoromethyl)-6-(1-(2-((3-((2-(2,6-dioxopiperidin-3-yl)-1,3-dioxoisoindolin-4-yl)amino)propyl)amino)-2-oxoethyl)-1H-pyrazol-4-yl)-3,4-dihydroquinolin-1(2H)-yl)-N-methyl-1-(tetrahydro-2H-pyran-4-yl)-1,4,6,7-tetrahydro-5H-pyrazolo[4,3-c]pyridine-5-carboxamide]
397 nM	< 20%	CNC(=O)N1CCc2c(c(N3CCCc4cc(-c5cnn(CC(=O)NCCCCNc6cccc7c6C(=O)N(C6CCC(=O)NC6=O)C7=O)c5)c(C(F)F)cc43)nn2C2CCOCC2)C1 (stereo not shown) [P-039, 3-(7-(Difluoromethyl)-6-(1-(2-((4-((2-(2,6-dioxopiperidin-3-yl)-1,3-dioxoisoindolin-4-yl)amino)butyl)amino)-2-oxoethyl)-1H-pyrazol-4-yl)-3,4-dihydroquinolin-1(2H)-yl)-N-methyl-1-(tetrahydro-2H-pyran-4-yl)-1,4,6,7-tetrahydro-5H-pyrazolo[4,3-c]pyridine-5-carboxamide]
96.4 nM	< 20%	CNC(=O)N1CCc2c(c(N3CCCc4cc(-c5cnn(CC(=O)NCCCCCNc6cccc7c6C(=O)N(C6CCC(=O)NC6=O)C7=O)c5)c(C(F)F)cc43)nn2C2CCOCC2)C1 (stereo not shown) [P-040, 3-(7-(Difluoromethyl)-6-(1-(2-((5-((2-(2,6-dioxopiperidin-3-yl)-1,3-dioxoisoindolin-4-yl)amino)pentyl)amino)-2-oxoethyl)-1H-pyrazol-4-yl)-3,4-dihydroquinolin-1(2H)-yl)-N-methyl-1-(tetrahydro-2H-pyran-4-yl)-1,4,6,7-tetrahydro-5H-pyrazolo[4,3-c]pyridine-5-carboxamide]

From patent US20230073777A1, “CYCLIC-AMP RESPONSE ELEMENT BINDING PROTEIN (CBP) AND/OR ADENOVIRAL E1A BINDING PROTEIN OF 300 KDA (P300) DEGRADATION COMPOUNDS AND METHODS OF USE” (CULLGEN (SHANGHAI), INC., priority 2019, published 2023)
